This is an account of results in patent US20260242418A1, “CYCLIC PEPTIDES WITH ANTIBACTERIAL ACTIVITY AGAINST MULTIDRUG RESISTANT (MDR) PATHOGENS” (priority 2022, published 2026).

What is called MIC50 is an inhibitory concentration at the 50% level, which refers to growth in some studies and to a panel of isolates in others. A higher MIC50 goes with weaker potency. As a reminder, the MIC90 is the lowest concentration that inhibits either 90% of growth or 90% of the strains tested, depending on the study. A low value points to higher susceptibility. As usually defined, the MIC is the lowest concentration that inhibits growth of the organism.

For one series, the system named is human cells. The note with it: cited from earlier work.
In the next series the test system is Acinetobacter baumannii. The series is classed as cell-based. An excerpt:
(§1) Minimum Inhibitory Concentration (MIC) of a peptide of SEQ D NO: 4 (abbreviated PLP-3) and colistin against a collection of clinically relevant and commercially available bacterial strains was obtained via broth microdilution. The protocol for antimicrobial activity determination, detailed below, consisted in a modification of Clinical & Laboratory Standards Institute (CLSI) Guidelines.
(§2) MIC is the value defined as the lowest concentration of an antimicrobial, in these tests either PLP-3 or colistin, which inhibits the macroscopic growth of a bacterial strain after 18-22 h incubation at 37° C. The results from these assays are obtained via visual identification of the bacterial bottom at the end of the wells of the testing plate. Since the wells contain decreasing concentrations of the compounds, the final result is indicated as a concentration, MIC, expressed in μg/mL of the agent (in this case PLP-3 or colistin).
(§3) Bacterial strains were streaked in Columbia Agar plates (Columbia Agar with 5% Sheep Blood 90 mm Stacker plates, BD) and incubated overnight at 37° C. Polypropylene round bottomed 96-well plates were filled with 50 μL/well of Mueller-Hinton Broth (MHB, CM0405, 500 g, ThermoFisher Scientific™ Oxoid™) and 50 μL of either colistin or PLP-3 (at 4× the chosen initial concentration of the test) were added to the first well of each row of the plate followed by serial dilutions up until the 10th column of the plate.
(§4) Finally, strain inoculums were prepared by diluting 1:100 0.5 McFarland solutions in MHB. Plates were then inoculated with 50 μL of the inoculums and covered with film before 18 to 22 h incubation at 37 C.
(§5) Three biological and three technical replicates were performed per strain.
(§6) Broth microdilution testing of 15 strains of each species provided MIC50 and […] values (Table 4). Strains were either from clinical origin, relevant to current clinical situation, or commercially available strains belonging to the American Type Culture Collection (ATCC), namely: A. baumannii 17978 and 19606, K. pneumoniae 13883 and P. aeruginosa 27853.
(§7) This panel represents an example of relevant MDR, colistin resistant and colistin susceptible strains from which to compare results. The minimum inhibitory concentration (MIC) is the lowest concentration of a chemical, usually a drug, which prevents visible growth of a bacterium or bacteria. MIC50 represents the antimicrobial concentration value that inhibits the growth of 50% of the bacterial strains and […] of each species from the tested panel of strains. Being colistin both a peptide and a last-resource antibiotic, it was included in these assays for comparison against a commercially available antibiotic.

In the next series the test system is Klebsiella pneumoniae. It is filed as cell-based.
From the text: as §1, §2, §3, §4, §5, §6, §7

In the next series the test system is Pseudomonas aeruginosa. The series is classed as cell-based.
From the text: as §1, §2, §3, §4, §5, §6, §7
P. aeruginosa ATCC 27853 strain (commercially available from the American Type Collection Culture) was used as control by performing MICs to colistin and PLP-3 in all broth microdilution assays

The conditions of series [1]: in vivo, iv; cited from earlier work.
Where [2] appears, read: panel of 15 A. baumannii strains.
[3] abbreviates: panel of 15 K. pneumoniae strains.
[4] abbreviates: panel of 15 P. aeruginosa strains.

Read-outs that look alike come from different tables or passages of the source. Positions of bridges follow the written chain, without caps; N, C: chain ends. Non-standard residues stand in square brackets, D forms with d. Residues, ends and D or L forms follow the SMILES beside them. No end group written: not given here. dDab = NCC[C@@H](N)C(=O)O; Orn = NCCC[C@H](N)C(=O)O; Dab = NCC[C@H](N)C(=O)O

Take “RGGRLCYCRRRFCVCVGR (disulfide 8-13, 6-15; listed as Sus scrofa) [PG-1]”: in the series with human cells, the “haemolysis and toxicity against human cells” value is “significant haemolysis and toxicity”.

As to colistin [reference compound], the values for the MIC50 in the series with Acinetobacter baumannii (setting [2]), in the series with Klebsiella pneumoniae (setting [3]) and against Pseudomonas aeruginosa (setting [4]) were 0,5 μg/mL, 8 mg/L and 0,5 μg/mL, respectively. Besides, the MIC90 is 64 mg/L against Acinetobacter baumannii (setting [2]), more than 64 mg/L against Klebsiella pneumoniae (setting [3]) and 64 mg/L with Pseudomonas aeruginosa (setting [4]). In addition, the MIC against Acinetobacter baumannii (strain 8* (MDR)) is 0.5 mg/L; in the series on Acinetobacter baumannii (strain 19* (MDR)), 0.25 mg/L; against Acinetobacter baumannii (strain 80* (MDR)) it was 0.5 mg/L; in the series on Acinetobacter baumannii (strain 174* (MDR)) it was 0.25 mg/L; in the series with Acinetobacter baumannii (strain 180* (MDR)) it was 0.5 mg/L; against Acinetobacter baumannii (strain 210* (MDR)), 8 mg/L. The MIC turned out to be 0.25 mg/L with Acinetobacter baumannii (strain 226* (MDR)); 0.25 mg/L in the series with Acinetobacter baumannii (strain 253* (MDR)); 0.25 mg/L in the series on Acinetobacter baumannii (strain 317); 0.25 mg/L against Acinetobacter baumannii (strain 383); 0.5 mg/L against Acinetobacter baumannii (strain 19606); 0.25 mg/L in the series on Acinetobacter baumannii (strain ATCC 17978). The MIC in the series on Acinetobacter baumannii (strain CR17* (MDR)) is more than 64 mg/L; against Acinetobacter baumannii (strain CR49), 64 mg/L; against Acinetobacter baumannii (strain CR86), 64 mg/L; with Klebsiella pneumoniae (strain 145* (MDR)), 32 mg/L; against Klebsiella pneumoniae (strain 398* (MDR)) it was more than 64 mg/L; against Klebsiella pneumoniae (strain 545), 0.25 mg/L. For the same compound, the MIC is 0.25 mg/L against Klebsiella pneumoniae (strain 674* (MDR)); more than 64 mg/L against Klebsiella pneumoniae (strain 681* (MDR)); 0.5 mg/L with Klebsiella pneumoniae (strain 716* (MDR)); 0.5 mg/L in the series on Klebsiella pneumoniae (strain 741* (MDR)); 0.5 mg/L against Klebsiella pneumoniae (strain 851* (MDR)); more than 64 mg/L with Klebsiella pneumoniae (strain 994* (MDR)). In addition, the MIC in the series with Klebsiella pneumoniae (strain 1052* (MDR)) is more than 64 mg/L; in the series on Klebsiella pneumoniae (strain 1078* (MDR)) it was 64 mg/L; against Klebsiella pneumoniae (strain 1129* (MDR)), 0.5 mg/L; in the series on Klebsiella pneumoniae (strain 1478* (MDR)), more than 64 mg/L; against Klebsiella pneumoniae (strain 1480* (MDR)), 0.25 mg/L; in the series with Klebsiella pneumoniae (strain ATCC 13883) it was 1 mg/L. Further, the MIC against Pseudomonas aeruginosa (strain 36a) was not above 0.125 mg/L; with Pseudomonas aeruginosa (strain 38a), 0.25 mg/L; in the series with Pseudomonas aeruginosa (strain ATCC 27853 (Table 2)) it was not above 0.125 mg/L; against Pseudomonas aeruginosa (strain ATCC 27853, control in the A. baumannii panel (Table 1)), not above 0.125 mg/L; against Pseudomonas aeruginosa (strain ATCC 27853, control in the K. pneumoniae panel (Table 3)), 0.25 mg/L; in the series with Pseudomonas aeruginosa (strain C1), 0.5 mg/L. The minimal inhibitory concentration (MIC) in the series with Pseudomonas aeruginosa (strain C2) was 1 mg/L; in the series on Pseudomonas aeruginosa (strain C3) it was 0.5 mg/L; in the series on Pseudomonas aeruginosa (strain C4), 0.5 mg/L; in the series with Pseudomonas aeruginosa (strain R1), more than 64 mg/L; in the series on Pseudomonas aeruginosa (strain R2) it was 64 mg/L; in the series with Pseudomonas aeruginosa (strain R3* (MDR)), 32 mg/L. Further, the MIC in the series with Pseudomonas aeruginosa (strain S1) was not above 0.125 mg/L; against Pseudomonas aeruginosa (strain S2* (MDR)), not above 0.125 mg/L; against Pseudomonas aeruginosa (strain S3), 0.5 mg/L; in the series with Pseudomonas aeruginosa (strain S4), not above 0.125 mg/L; against Pseudomonas aeruginosa (strain S5) it was not above 0.125 mg/L.

For the compound `CC[C@H](C)[C@@H]1NC(=O)[C@H](Cc2c[nH]c3ccccc23)NC(=O)[C@H]([C@@H](C)O)NC(=O)[C@@H]2CCCN2C(=O)[C@H]2CCCN2C(=O)[C@H](CO)NC(=O)[C@H](C)NC(=O)[C@H](CCN)NC(=O)[C@H](CCN)NC(=O)[C@H](Cc2c[nH]c3ccccc23)NC(=O)[C@H](CCN)NC(=O)[C@@H](CCN)NC(=O)[C@H](CCCN)NC(=O)[C@H](CCN)NC1=O` [Murepavadin, cyclo[Ala-Ser-D-Pro-Pro-Thr-Trp-Ile-Dab-Orn-D-Dab-Dab-Trp-Dab-Dab]] (cyclo(TWI[Dab][Orn][dDab][Dab]W[Dab][Dab]AS[dP]P)), the “adverse finding in phase-III clinical trials” value in series [1] is given as “kidney damage in over half of the patients”.
